In ChEMBL document CHEMBL2029268, “A new high-yield synthetic route to PET CB1 radioligands [11C]OMAR and its analogs” (Bioorg Med Chem Lett, 2012) one finds logP data, which are given here for two molecules.

The nature of this data set: Octanol-water distribution coefficient, log P of the compound by HPLC analysis. The data set is classed as physicochemical.

With `[11CH3]Oc1ccc(-c2c(C#N)c(C(=O)NN3CCCC3)nn2-c2ccccc2Br)cc1`, the logP is 2.03.

Take `[11CH3]Oc1ccc(-c2c(C#N)c(C(=O)NN3CCCCC3)nn2-c2ccccc2Br)cc1`: the logP is 2.29.

As a reminder, the logP is the decadic logarithm of the partition coefficient of the neutral form, usually between octanol and water. High values mean higher lipophilicity, low ones lower lipophilicity.
